Values quoted from earlier work in US9308243B2, “Cellular enhancements in biological systems through the use of li-pofullerene and peptide group combinations” (LivePet, LLC, priority 2014, dated 2016).

System: male flies
Settings: tiny amount added to food supply

## NCCC(=O)N[C@@H](Cc1c[nH]cn1)C(=O)O [carnosine, L-Carnosine]
  increase in the average life span: 20%
